The assay in a line: Swelling of clay in water: viscosity and gel strength of sodium bentonite dispersion. The following applies: in words. The method, then:
Additional tests were conducted to determine the utility of the metal complexes of the invention on the swelling of clay in water. 6 grams of the product were dissolved in 300 ml. of distilled water, and the pH of the solution was adjusted to 10.5 with sodium hydroxide. 30 grams of sodium bentonite were then added and the mixture was bottled and rolled 16 hours at 70°C. Viscosity and gel strengths were then determined using a Fann model 35 viscometer. Lowered viscosity and gels indicate decreased swelling and viscosity building.

As for aluminum, the “inhibiting the swelling of bentonite clays” value is listed as “most effective”.

The values are drawn from patent publication US3931147A, “Water-soluble derivatives of sodium mannoheptonate” (International Telephone and Telegraph Corporation, priority 1973, dated 1976).
